Tests used:
[1] = tested on: HPAC cells; test: HPAC TGI 73 pancreatic cancer xenograft, tumor volumes; format: in vivo, nude/nude mice; details: for Average Tumor Volumes: 30 mg/kg IP BID daily
Method: (§1) Immunocompromised nude/nude mice are inoculated in the right hind flank with cells harboring a KRas G12D mutation. When tumor volumes reach between 200-400 mm^3 in size, the mice are divided into four to five groups of 5 mice each. The first group is administered vehicle only. […] The fourth or last groups are administered the single agent dose of the KRas G12D inhibitor using the twice daily schedule and/or the 2 sequential days followed by 5 days off schedule in combination with the single agent dose of one of the EGFR inhibitors. The treatment period varies from cell line to cell line but typically is between 15-40 days. Tumor volumes are measured using a caliper every two-three days and tumor volumes are calculated by the formula: […].
Experimental Procedures. 20 nude/nude mice were inoculated with HPAC cells in the right hind flank. When the tumors reached ˜200 mm^3 four treatment groups were established with five mice per group.

[2] = tested on: SNU-1033 cells; test: SNU-1033 TGI 46 colorectal cancer xenograft, tumor volumes; format: in vivo, nude/nude mice; details: for Average Tumor Volumes: 30 mg/kg BID 2x/week
Method: as §1, with “The treatment period varies from cell line to cell line but typically is between 15-40 days.” left out
20 to 30 nude/nude mice per study were inoculated in the right hind limb with 5×10^6 LS180 cells, AsPC-1 cells, GP2D cells, Panc 02.03 cells, SW1990 cells, or SNU-1033 cells.
Experimental Procedures. 20 nude/nude mice were inoculated with SNU-1033 cells in the right hind flank. When the tumors reached ˜300 mm^3 four treatment groups were established with five mice per group.

## C#Cc1c(F)ccc2cc(O)cc(-c3ncc4c(N5C[C@H]6CC[C@@H](C5)N6)nc(OC[C@@]56CCCN5C[C@H](F)C6)nc4c3F)c12 [MRTX1133, 4-(4-((1R,5S)-3,8-diazabicyclo[3.2.1]octan-3-yl)-8-fluoro-2-(((2R,7aS)-2-fluorohexahydro-1H-pyrrolizin-7a-yl)methoxy)pyrido[4,3-d]pyrimidin-7-yl)-5-ethynyl-6-fluoronaphthalen-2-ol]
[1]; Study Day 0
  Average Tumor Volumes: 196.76 mm^3
[1]; Study Day 3
  Average Tumor Volumes: 149.646 mm^3
[1]; Study Day 7
  Average Tumor Volumes: 107.504 mm^3
[1]; Study Day 10
  Average Tumor Volumes: 99.742 mm^3
[1]; Study Day 14
  Average Tumor Volumes: 91.818 mm^3
[1]; Study Day 17
  Average Tumor Volumes: 93.348 mm^3
[1]; Study Day 21
  Average Tumor Volumes: 74.006 mm^3
[1]; 30 mg/kg daily, single agent, Day 21
  tumor regression: −62%
[2]; Study Day 1
  Average Tumor Volumes: 298.92 mm^3
[2]; Study Day 5
  Average Tumor Volumes: 336.336 mm^3
[2]; Study Day 8
  Average Tumor Volumes: 431.99 mm^3
[2]; Study Day 12
  Average Tumor Volumes: 468.892 mm^3
[2]; Study Day 15
  Average Tumor Volumes: 529.222 mm^3
[2]; Study Day 19
  Average Tumor Volumes: 643.516 mm^3
[2]; Study Day 22
  Average Tumor Volumes: 703.368 mm^3
[2]; Study Day 26
  Average Tumor Volumes: 802.69 mm^3
[2]; Study Day 29
  Average Tumor Volumes: 838.708 mm^3
[2]; Study Day 33
  Average Tumor Volumes: 895.918 mm^3
[2]; 30 mg/kg twice per week, single agent, Day 33
  tumor growth inhibition: 47%

Reference: patent US20240408099A1, “COMBINATION […] OF KRAS G12D INHIBITORS WITH Pan ErbB FAMILY INHIBITORS” (MIRATI THERAPEUTICS, INC., priority 2021, published 2024)
